In patent US20200000825A1, “METHODS AND COMPOSITIONS FOR TREATING AND PREVENTING VIRAL INFECTIONS” (ENTERIN LABORATORIES, INC., priority 2009, published 2020):

How the values were obtained:
Assay in all cases: MPP uptake inhibition (transport competition) assay in CHO cells over-expressing a human Oct transporter
Format in all cases: cell-based
Human Oct 1 = target: T1, Human Oct 1 (Homo sapiens, UniProt O15245)
T1 sequence (O15245 1-554): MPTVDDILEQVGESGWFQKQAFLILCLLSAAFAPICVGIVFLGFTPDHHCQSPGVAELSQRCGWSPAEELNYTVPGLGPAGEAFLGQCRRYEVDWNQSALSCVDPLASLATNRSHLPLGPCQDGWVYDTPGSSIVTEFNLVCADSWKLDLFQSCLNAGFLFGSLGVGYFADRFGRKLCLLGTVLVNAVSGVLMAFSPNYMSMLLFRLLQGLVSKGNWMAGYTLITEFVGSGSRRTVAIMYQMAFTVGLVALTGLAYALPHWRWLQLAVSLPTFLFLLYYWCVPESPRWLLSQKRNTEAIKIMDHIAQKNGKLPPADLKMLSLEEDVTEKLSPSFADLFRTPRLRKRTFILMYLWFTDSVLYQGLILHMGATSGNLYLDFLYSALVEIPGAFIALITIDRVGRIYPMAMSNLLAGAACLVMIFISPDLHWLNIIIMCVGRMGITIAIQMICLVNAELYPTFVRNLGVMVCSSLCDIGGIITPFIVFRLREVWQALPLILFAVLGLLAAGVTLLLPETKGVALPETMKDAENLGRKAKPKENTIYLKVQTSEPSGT
Protocol: (§1) This example determines whether squalamine is a substrate for the organic cation transporter (Oct). This determination employed a standard transport competition assay, described in the literature (Lips, Volk et al. 2005).
(§2) Chinese hamster ovary cells, previously engineered to over-express a specific human Oct transporter were used in the assay. In this example, the effect of a specific concentration of an amino sterol is determined on the intracellular uptake of radiolabelled 1-methyl-4-phenylpyridine (MPP) (at 0.01 μM), measured after a 1-second exposure. […] IC50 refers to the concentration of squalamine or 1436 required to inhibit MPP uptake by 50%. Table 1 below describes the affinity of squalamine and Amino sterol 1436 for human organic cation transporters (Human Oct 1, Human Oct 2, and Human Oct 3) based upon the MPP uptake inhibition assay.

Human Oct 3 = target: T2, Human Oct 3 (Homo sapiens, UniProt O75751); conditions: 100 μM aminosterol, radiolabelled MPP 0.01 μM, 1-second exposure
T2 sequence (O75751 1-556): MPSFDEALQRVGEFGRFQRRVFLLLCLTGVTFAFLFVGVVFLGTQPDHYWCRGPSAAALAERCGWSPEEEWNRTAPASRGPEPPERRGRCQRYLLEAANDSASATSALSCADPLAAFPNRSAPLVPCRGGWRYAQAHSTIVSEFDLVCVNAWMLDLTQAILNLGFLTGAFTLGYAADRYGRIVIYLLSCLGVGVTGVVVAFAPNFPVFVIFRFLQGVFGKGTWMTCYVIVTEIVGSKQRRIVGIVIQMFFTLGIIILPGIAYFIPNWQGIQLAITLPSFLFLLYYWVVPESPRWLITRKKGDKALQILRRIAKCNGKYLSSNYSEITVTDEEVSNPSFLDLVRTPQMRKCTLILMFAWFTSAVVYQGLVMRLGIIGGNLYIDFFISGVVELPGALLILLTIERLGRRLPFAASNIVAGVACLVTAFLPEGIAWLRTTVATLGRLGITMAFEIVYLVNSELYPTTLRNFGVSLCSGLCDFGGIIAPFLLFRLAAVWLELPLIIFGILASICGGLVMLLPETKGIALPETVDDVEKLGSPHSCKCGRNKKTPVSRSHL
Protocol: as §1, §2

Human Oct 2 = target: T3, Human Oct 2 (Homo sapiens, UniProt O15244)
T3 sequence (O15244 1-555): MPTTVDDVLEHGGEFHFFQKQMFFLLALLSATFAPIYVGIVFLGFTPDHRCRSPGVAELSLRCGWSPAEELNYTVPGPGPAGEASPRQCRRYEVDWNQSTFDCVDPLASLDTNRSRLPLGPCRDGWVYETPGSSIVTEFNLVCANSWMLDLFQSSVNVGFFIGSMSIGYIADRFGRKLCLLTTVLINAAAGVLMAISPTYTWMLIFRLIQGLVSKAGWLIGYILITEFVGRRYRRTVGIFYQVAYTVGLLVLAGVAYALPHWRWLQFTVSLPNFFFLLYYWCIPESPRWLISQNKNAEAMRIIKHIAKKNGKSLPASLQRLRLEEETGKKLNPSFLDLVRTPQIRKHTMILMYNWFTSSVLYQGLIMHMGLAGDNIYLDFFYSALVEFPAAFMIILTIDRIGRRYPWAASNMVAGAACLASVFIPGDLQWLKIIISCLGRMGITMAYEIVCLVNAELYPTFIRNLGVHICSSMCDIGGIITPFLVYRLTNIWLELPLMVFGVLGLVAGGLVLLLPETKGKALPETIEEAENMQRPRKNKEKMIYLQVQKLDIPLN
Protocol: as §1, §2

[1] = 100 μM aminosterol, radiolabelled MPP 0.01 μM, 1-second exposure
[2] = read-out: IC50 (concentration required to inhibit MPP uptake by 50%)

With CC(C)[C@@H](CC[C@@H](C)[C@H]1CC[C@H]2[C@@H]3[C@H](O)C[C@H]4C[C@@H](NCCCNCCCCN)CC[C@]4(C)[C@H]3CC[C@]12C)OS(=O)(=O)O [Squalamine, squalamine] the “% Inhibition of MPP uptake caused by 100 μM” value (“% Inhibition” for short) (Human Oct 1; [1]) was 25%, the IC50 (Human Oct 1; [2]) was 34 µM and the “% Inhibition” value (Human Oct 3) was 60%. For the same compound, the “% Inhibition” value (Human Oct 2; [1]) was 40% and the IC50 (Human Oct 2; [2]) was 50 µM.
